“Also recorded” adds a separate entry of the source. Where two headings read alike, the source gives them in different places.
Tests used:
CEM-SS cells = assay: cells; type: cell-based; conditions: for IC50: 50% cytotoxicity, read-out: IC50
Protocol: Agents Chemother. […] Briefly, cells are infected with HIV-1 RF (or other virus to be tested) in the presence of various dilutions of test compounds (thiolesters and controls). The cultures are incubated for seven days. […] The cell death is measured by XTT dye reduction. XTT is a soluble tetrazolium dye that measures mitochondrial energy output, similar to MTT. Positive controls using dextran sulfate (an attachment inhibitor) or 3′-Azido-2′-3′-dideoxythymidine, AZT (a reverse transcriptase inhibitor) are added to each assay. Individual assays are done in duplicate using a sister plate method.

U1 cells = assay: Cell viability of TNFα-induced U1 cells; type: cell-based
Protocol: Thiolester compounds were also tested for their ability to. inhibit HIV-1 replication in TNFα-induced U1 and ACH-2 cells. U1 cells were induced with 5 ng/ml of TNFα in the presence of various concentrations of the thiolesters 44, 45 or 47. Forty-eight hours later the cultures were characterized for virus p24 antigen production and cell viability. […] Compound 44 killed 60% of the cells at 200 μM. […] Precursor processing evaluation performed as described by Turpin (1997) Antiviral Chem. Chemother. 8:60-69. Thus, thiolester PATEs initiate intracellular disulfide cross-linking of precursor polyproteins during late phase virus assembly and mediate a direct virucidal effect via an attack on the mature NCp7 retroviral zinc fingers in the cell-free virus.

[1] = molecular target: T1, Virion-associated NCp7 proteins from cell-free HIV-1MN (Human immunodeficiency virus type 1 group M subtype B, UniProt P05888); assay: Virion NCp7 cross-linking (non-reducing Western blotting)
T1 construct: attack on the mature NCp7 retroviral zinc fingers in the cell-free virus; endogenous in cells
Protocol: The interaction of zinc finger inhibitors, such as the thiolesters of the invention, with cell-free virus can result in modification of intravirion NCp7 protein and loss of infectivity. Virion-associated NCp7 proteins from cell-free HIV-1MN were treated with thiolester compounds 44 and 45. They were also evaluated by non-reducing Western blotting using HIV-1 NCp7-specific antibodies. […] Cross-linking by compound 45 was due to formation of intermolecular disulfide bonds because reduction with 2-mercaptoethanol (β-ME) completely reversed the gel retardation.
Virion cross linking was performed as described by Rice (1995) Science 270:1194-1197 and Turpin (1997) Antiviral Chem. Chemother. 8:60-67. Briefly, highly purified HIV-1MN (11.8 μg total protein) was incubated for 2 hour with concentrations of compound. Virions were concentrated and residual compound was removed by centrifugation (18,000×g, 1 h, 4° C.). The viral pellet was solubilized in 0.5 M Tris-HCl, (pH 6.8), 50% glycerol, 8% SDS and 0.4% bromophenol blue and proteins resolved by Western blotting. Western blotting to detect the expression of HIV-1 proteins in U1 cells or virus pellets for virion cross-linking experiments was carried out as described by Turpin (1996) J. Virol. 70:6180-6189. Briefly, 50 μg of total cellular protein for U1 experiments or the. total virion pellet (11.8 μg total viral protein) for NCp7 cross linking studies was resolved on 4 to 20% polyacrylamide gels in SDS with Tris-Glycine (Novex, San Diego Calif.). Samples for reduced gels were boiled for 5 min in the presence of 5% β-ME prior to loading. Resolved proteins were electroblotted on to polyvinylidene difluoride (PVDF) membranes, and HIV-1 specific proteins were detected using a mixture of goat anti-HIV-1 NCp7 and p24 or anti-NCp7 for virion proteins alone (a kind gift of L. E. Henderson, AIDS Vaccine Program NCI-FCRDC, Frederick, Md.). Western blots were developed using standard chemiluminescence methodologies, as produced and described by Dupont-NEN, Wilmington, Del.
Purified concentrated retrovirus and antisera against the purified NC protein of the virus can be used to test the ability of a specific compound to penetrate the virus and react with the NC protein by forming disulfide complexes in the core of the virus. Compound are mixed with the whole retrovirus under reaction conditions appropriate for the compound. The virus is then removed from the reagent by centrifugation and disrupted in, e.g., standard SDS-PAGE sample buffer with (reduced) and without (non-reduced) 2-mercaptoethanol. The viral proteins are then separated by standard SDS-PAGE and the sample examined for the presence or absence of the monomeric zinc finger protein in the non-reduced sample. Depending upon the virus used in the experiment and the conditions of electrophoresis, the zinc finger protein can be visualized by protein staining methods, or by immuno-blot methods. Compounds which react with the zinc finger protein by attacking the zinc finger complexes and forming disulfide cross-linked products inactivate the virus. Thus, compounds of interest (i.e., those which cause cross-linking), including the thiolesters of the invention, reduce the amount of monomeric zinc finger protein detected.

| Structure (SMILES) | IC50 (CEM-SS cells; Table 5) | cells killed (U1 cells; U1 cells, at 200 μM) | cellular toxicity in U1 cells (U1 cells; high test dose of 100 μM) | intravirion NCp7 cross-linking (in words) [1] | IC50 (CEM-SS cells; Table 10) | cellular toxicity (in words) (CEM-SS cells; high test dose of 316 μM) | cellular toxicity in U1 cells (U1 cells; higher dose testing (300 μM)) | IC50 (CEM-SS cells; Homo sapiens, CEM-SS, Table 6) |
| --- | --- | --- | --- | --- | --- | --- | --- | --- |
| CC(=O)NS(=O)(=O)c1ccc(NC(=O)c2ccccc2SC(=O)CCCCBr)cc1 [Compound 44, N-[2-(5-bromovaleroylthio)benzoyl]sulfacetamide] | 184.5 µM | 60% | No cellular toxicity | very poor cross-linking agent |  |  |  |  |
| CC(=O)NS(=O)(=O)c1ccc(NC(=O)c2ccccc2SC(=O)CCCC[n+]2ccccc2)cc1 [Compound 45, N-[2-(5-pyridinio-valeroylthio)benzoyl]sulfacetamide bromide] | >316 µM |  | No cellular toxicity | extensive cross-linking of NCp7; also recorded: strong cross-linker of intravirion NCp7 | >316 µM | no toxicity | no toxicity |  |
| O=C(CCCC[n+]1ccccc1)Sc1ccccc1C(=O)Nc1ccc(S(=O)(=O)c2ccc([N+](=O)[O-])cc2)cc1 [Compound 47] |  |  | No cellular toxicity | did not effectively initiate NCp7 cross-linking |  |  | no toxicity |  |
| O=C(O)CCCC[n+]1ccccc1.[Br-] [Compound 53, 5-pyridiniovaleric acid] |  |  |  | Neither intravirion cross-linkage of NCp7 nor virucidal activity were detected |  |  |  | > 316 µM |
